What was measured:
Parameters in all cases: species or system mixed lysate of K562, MV4-11, THP-1, NCI-H1155
[1] = biological target: Activin receptor type-1B ; ACVR1B ; P36896 (Homo sapiens, UniProt P36896); settings: DIA-MS residual binding; binder
[2] = biological target: Mitogen-activated protein kinase kinase kinase kinase 5 ; MAP4K5 ; Q9Y4K4 (Homo sapiens, UniProt Q9Y4K4); settings: DIA-MS residual binding; binder
[3] = biological target: T1, Ephrin type-B receptor 1 ; EPHB1 ; P54762 (Homo sapiens, UniProt P54762); settings: DIA-MS residual binding; binder
T1 sequence (P54762 1-984): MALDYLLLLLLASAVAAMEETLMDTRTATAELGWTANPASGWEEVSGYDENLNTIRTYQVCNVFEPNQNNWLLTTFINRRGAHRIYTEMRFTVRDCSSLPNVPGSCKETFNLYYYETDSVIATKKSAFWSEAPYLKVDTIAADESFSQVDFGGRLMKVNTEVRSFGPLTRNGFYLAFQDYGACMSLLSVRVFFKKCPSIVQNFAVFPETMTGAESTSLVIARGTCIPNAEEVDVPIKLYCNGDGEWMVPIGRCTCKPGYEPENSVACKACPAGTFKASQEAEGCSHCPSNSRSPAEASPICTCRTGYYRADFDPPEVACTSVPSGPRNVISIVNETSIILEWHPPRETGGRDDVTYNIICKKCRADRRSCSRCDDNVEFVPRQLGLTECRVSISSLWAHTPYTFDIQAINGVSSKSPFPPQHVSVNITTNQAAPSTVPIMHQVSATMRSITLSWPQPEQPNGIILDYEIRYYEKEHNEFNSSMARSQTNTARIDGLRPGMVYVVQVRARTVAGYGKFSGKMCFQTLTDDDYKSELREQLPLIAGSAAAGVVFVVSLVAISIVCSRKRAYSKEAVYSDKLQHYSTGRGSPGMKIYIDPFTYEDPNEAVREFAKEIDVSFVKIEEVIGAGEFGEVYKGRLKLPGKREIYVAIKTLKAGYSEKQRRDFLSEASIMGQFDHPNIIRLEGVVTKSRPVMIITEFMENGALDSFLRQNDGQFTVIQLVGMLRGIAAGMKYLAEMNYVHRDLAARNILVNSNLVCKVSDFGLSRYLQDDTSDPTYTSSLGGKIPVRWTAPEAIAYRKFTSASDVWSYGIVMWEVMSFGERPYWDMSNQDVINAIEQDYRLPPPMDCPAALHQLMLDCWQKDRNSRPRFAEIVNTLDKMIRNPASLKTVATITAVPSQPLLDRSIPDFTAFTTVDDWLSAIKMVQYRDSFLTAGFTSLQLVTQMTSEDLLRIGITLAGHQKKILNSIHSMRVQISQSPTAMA

[4] = biological target: Receptor-interacting serine/threonine-protein kinase 2 ; RIPK2 ; O43353 (Homo sapiens, UniProt O43353); settings: DIA-MS residual binding; binder
[5] = biological target: T2, Discoidin domain-containing receptor 2 ; DDR2 ; Q16832 (Homo sapiens, UniProt Q16832); settings: binder
T2 sequence (Q16832 1-855): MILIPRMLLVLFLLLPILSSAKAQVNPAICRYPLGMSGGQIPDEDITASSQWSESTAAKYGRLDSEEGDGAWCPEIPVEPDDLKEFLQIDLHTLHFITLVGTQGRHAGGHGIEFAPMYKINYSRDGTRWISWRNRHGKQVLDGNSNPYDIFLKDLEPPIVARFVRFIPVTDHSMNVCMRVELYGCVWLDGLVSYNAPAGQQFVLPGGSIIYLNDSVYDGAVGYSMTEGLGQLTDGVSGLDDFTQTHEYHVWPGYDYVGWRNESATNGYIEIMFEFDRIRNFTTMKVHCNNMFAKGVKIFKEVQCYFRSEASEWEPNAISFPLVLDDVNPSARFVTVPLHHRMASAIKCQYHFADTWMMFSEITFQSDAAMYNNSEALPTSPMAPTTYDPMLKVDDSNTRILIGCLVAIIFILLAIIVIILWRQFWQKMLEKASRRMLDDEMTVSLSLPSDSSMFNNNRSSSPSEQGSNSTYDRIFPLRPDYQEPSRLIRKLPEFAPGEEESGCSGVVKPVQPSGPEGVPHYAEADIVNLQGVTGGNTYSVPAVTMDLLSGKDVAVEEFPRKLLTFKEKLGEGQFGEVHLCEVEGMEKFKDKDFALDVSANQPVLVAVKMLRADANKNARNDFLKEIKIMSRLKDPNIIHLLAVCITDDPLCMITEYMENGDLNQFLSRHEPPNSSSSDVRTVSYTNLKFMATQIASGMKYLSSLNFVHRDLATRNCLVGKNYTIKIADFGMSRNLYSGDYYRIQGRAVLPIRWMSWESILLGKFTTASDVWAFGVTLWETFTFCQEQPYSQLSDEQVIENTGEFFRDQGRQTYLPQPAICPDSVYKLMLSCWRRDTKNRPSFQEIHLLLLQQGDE

Chain of Receptor-interacting serine/threonine-protein kinase 2 ; RIPK2 ; O43353 (O43353 whole entry, the tested form may be a part, one chain of several): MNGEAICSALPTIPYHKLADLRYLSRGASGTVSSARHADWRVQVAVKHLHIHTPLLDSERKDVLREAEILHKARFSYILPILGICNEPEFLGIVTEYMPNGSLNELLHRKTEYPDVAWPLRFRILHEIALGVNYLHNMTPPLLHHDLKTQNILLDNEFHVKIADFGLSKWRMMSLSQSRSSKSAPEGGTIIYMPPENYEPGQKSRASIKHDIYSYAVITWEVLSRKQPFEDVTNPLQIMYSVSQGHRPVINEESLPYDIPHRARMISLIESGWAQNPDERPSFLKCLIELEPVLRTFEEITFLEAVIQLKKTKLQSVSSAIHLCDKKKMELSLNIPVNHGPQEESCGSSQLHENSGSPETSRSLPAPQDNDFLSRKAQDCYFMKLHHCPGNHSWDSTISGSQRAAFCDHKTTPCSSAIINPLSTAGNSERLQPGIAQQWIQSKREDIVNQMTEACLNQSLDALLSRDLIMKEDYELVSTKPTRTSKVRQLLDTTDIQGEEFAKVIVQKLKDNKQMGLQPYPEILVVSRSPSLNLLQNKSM
Chain of Mitogen-activated protein kinase kinase kinase kinase 5 ; MAP4K5 ; Q9Y4K4 (Q9Y4K4 whole entry): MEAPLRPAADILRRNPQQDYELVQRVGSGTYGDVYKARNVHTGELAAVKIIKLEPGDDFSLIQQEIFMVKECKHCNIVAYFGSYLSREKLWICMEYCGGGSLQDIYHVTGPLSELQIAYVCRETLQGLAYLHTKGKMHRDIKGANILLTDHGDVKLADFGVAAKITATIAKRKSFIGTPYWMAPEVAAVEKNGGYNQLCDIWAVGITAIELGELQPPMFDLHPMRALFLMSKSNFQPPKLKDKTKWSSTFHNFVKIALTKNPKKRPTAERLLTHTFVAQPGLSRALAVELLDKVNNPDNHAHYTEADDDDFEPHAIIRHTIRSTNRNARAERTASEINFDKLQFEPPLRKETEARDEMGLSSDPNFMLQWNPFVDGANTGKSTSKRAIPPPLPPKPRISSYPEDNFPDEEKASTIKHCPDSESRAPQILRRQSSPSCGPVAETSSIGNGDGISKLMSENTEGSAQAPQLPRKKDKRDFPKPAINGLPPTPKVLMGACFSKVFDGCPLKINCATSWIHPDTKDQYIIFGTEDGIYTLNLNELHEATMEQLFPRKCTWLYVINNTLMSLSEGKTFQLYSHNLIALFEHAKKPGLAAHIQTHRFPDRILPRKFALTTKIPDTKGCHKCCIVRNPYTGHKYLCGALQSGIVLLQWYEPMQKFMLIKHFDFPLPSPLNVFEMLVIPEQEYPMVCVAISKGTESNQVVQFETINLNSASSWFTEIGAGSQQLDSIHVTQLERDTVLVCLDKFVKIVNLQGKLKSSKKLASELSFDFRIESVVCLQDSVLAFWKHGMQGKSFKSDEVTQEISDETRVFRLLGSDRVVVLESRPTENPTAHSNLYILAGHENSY
Chain of Activin receptor type-1B ; ACVR1B ; P36896 (P36896 whole entry): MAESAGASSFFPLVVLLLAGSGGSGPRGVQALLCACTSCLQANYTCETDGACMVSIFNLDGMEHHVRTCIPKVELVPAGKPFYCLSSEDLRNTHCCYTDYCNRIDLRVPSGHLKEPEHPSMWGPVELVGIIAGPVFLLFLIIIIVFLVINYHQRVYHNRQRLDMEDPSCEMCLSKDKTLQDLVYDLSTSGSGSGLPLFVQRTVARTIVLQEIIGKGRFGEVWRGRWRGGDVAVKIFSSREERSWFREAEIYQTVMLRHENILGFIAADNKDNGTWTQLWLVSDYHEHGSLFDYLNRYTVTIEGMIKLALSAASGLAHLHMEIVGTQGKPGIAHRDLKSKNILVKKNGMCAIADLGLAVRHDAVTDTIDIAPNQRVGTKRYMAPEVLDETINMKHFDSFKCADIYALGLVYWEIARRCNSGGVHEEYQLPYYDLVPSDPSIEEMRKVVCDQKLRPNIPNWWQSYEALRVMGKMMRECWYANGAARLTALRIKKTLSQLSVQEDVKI

For Cc1nc(Nc2ncc(C(=O)Nc3c(C)cccc3Cl)s2)cc(N2CCN(CCO)CC2)n1 [dasatinib], the “DIA-MS / % Intensity (30 µM/DMSO)” value [1] was 38.22%, the “DIA-MS / % Intensity (30 µM/DMSO)” value [2] was 28.36% and the “DIA-MS / % Intensity (30 µM/DMSO)” value [3] was 6.728%. The “DIA-MS / % Intensity (30 µM/DMSO)” value [4] was 2.357% and the “DIA-MS / % Intensity (30 µM/DMSO)” value [5] was 5.824%.

Source: doi:10.1101/2024.08.13.607785v1 (biorxiv, 2024)
